Measured values published in patent US20250188123A1, “PROTEASE INHIBITORS” (Regents of the University of Minnesota, priority 2022, published 2025).

System: primary hippocampal neurons overexpressing P301S tau (Tau−/+) and littermate controls (Tau−/−)
Assay: mEPSC recording in primary hippocampal neurons from PS19 transgenic mice expressing P301S tau
Assay type: cell-based, mouse
Conditions: 10 μM; for average amplitude of mEPSC responses in Tau−/+ versus Tau−/− neurons: 3 days in culture media; for cumulative curve of mEPSC amplitudes, Tau−/+ compared with Tau−/−: Mann-Whitney U test
Procedure: For these studies, PS19 transgenic mice expressing P301S mutant tau, one of the most used models of FTDP-17 were used (Feinstein S. Faculty Opinions recommendation of Synapse loss and microglial activation precede tangles in a P301S tauopathy mouse model. Faculty Opinions—Post-Publication Peer Review of the Biomedical Literature. 2007; and Takeuchi H, et al., PLoS One., 2011, 6, e21050). To detect functional deficits, primary hippocampal neurons were cultured from heterozygous transgenic mice overexpressing P301S tau (Feinstein S. Faculty Opinions recommendation of Synapse loss and microglial activation precede tangles in a P301S tauopathy mouse model. Faculty Opinions—Post-Publication Peer Review of the Biomedical Literature. 2007; and Takeuchi H, et al., PLoS One., 2011, 6, e21050) and littermate controls, (denoted Tau−/+ and Tau−/− respectively in FIG. 3), and recorded miniature excitatory synaptic currents (mEPSCs).
Briefly, a 22 mm diameter glass coverslip (0.09 mm thickness) was silicone-sealant-fastened to the bottom of a 35 mm culture dish with a bored hole of 20 mm in diameter and sterilized as described by Smith B R, et al., Acta Neuropathologica Communications, 2019, 7(1), 124. Coverslips were coated with poly-D-lysine. Hippocampi were dissected from neonatal Sprague-Dawley timed-pregnancy rats (Envigo) or appropriate transgenic mice and control littermates (see main text) at post-natal day 0-1. Hippocampi were enzymatically digested in Earle's Balanced Salt Solution (EBSS) supplemented with 1% glucose and cysteine-activated papain. Digestion was blocked with dilute BSA (bovine serum albumin) and chicken ovomucoid, and cells were rinsed in fresh EBSS and plated in plating medium (minimal essential medium with Earle's salts, 10% fetal bovine serum, 5% horse serum, 2 mM glutamine, 10 mM sodium pyruvate, 0.6% glucose, 100 U/ml penicillin and […] streptomycin) at 1.0×10^6 cells/dish. After 18 h cell adherence was established. Cells were then grown in a neurobasal medium (a 1:5 mixture of NbActiv4 to NbActiv1; BrainBits LLC) and incubated at 37° C. in a 5% CO2 biological incubator.
Miniature excitatory postsynaptic currents (mEPSCs) were recorded from cultured dissociated mouse hippocampal neurons at 17-21 DIV with a glass pipette (resistance ˜5 MΩ) at holding potentials of −65 mV on an Axopatch 200B amplifier (output gain=0.5; filtered at 1 kHz) as we previously described (Miller E C, et al., Eur J Neurosci., 2014, 39, 214-224). Input and series resistances were assessed and found to have no significant difference before and after recording time (5-20 mins). Recording sweeps lasted 200 ms and were sampled for every 1 s (pClamp, v10, RRID: SCR_011323). Neurons were bathed in bubble-oxygenated artificial cerebrospinal fluid (ACSF) at 23° C. with 100 μM APV (NMDA receptor antagonist), 1 μM TTX (sodium channel blocker), and 100 μM picrotoxin (GABAa receptor antagonist). Passive oxygen perfusion was established with medical-grade 95% O2-5% CO2. ACSF contained (in mM) 119 NaCl, 2.5 KCl, 5.0 CaCl2), 2.5 MgCl2, 26.2 NaHCO3, 1 NaH2PO4, and 11 D-glucose. The internal solution of the glass pipettes contained (in mM) 100 cesium gluconate, 0.2 EGTA, 0.5 MgCl2, 2 ATP, 0.3 GTP, and 40 HEPES. The pH of the internal solution was normalized to 7.2 with cesium hydroxide and diluted to a trace osmotic deficit in comparison to ACSF (˜300 mOsm). All analysis of recordings was performed using an automated detection software suit (Clampfit, 11.0.3, Molecular Devices, San Jose, CA, USA). Minimum analysis parameters were set at greater than 1 min stable recording time and events with amplitudes greater than 3 pA and smaller than 40 pA were included. A mEPSC event was identified by using a template which included a distinct fast-rising depolarization and slow-decaying repolarization. […]

SMILES	average amplitude of mEPSC responses in Tau−/+ versus Tau−/− neurons	cumulative curve of mEPSC amplitudes, Tau−/+ compared with Tau−/− (3 days)	average amplitudes of mEPSC responses of Tau−/+ neurons versus those treated with Compound 30a or 30b (3 days)
CC(=O)N[C@H](C(=O)NC(CC(=O)O)C(=O)N[C@H](C(=O)N1CCc2cc(C)ccc2C1C(=O)N[C@H](C=O)CC(=O)O)C(C)C)C(C)C (stereo in doubt) [Compound 30a, (R)-3-((S)-2-acetamido-3-methylbutanamido)-4-(((S)-1-((S)-1-(((S)-1-carboxy-3-oxopropan-2-yl)carbamoyl)-6-methyl-3,4-dihydroisoquinolin-2(1H)-yl)-3-methyl-1-oxobutan-2-yl)amino)-4-oxobutanoic acid, reference compound]	significantly smaller	shifted to the left	–
Cc1ccc2c(c1)CCN(C(=O)[C@@H](NC(=O)[C@H](CCCC(=O)O)NC(=O)C1Cc3ccccc3N1)C(C)C)[C@@H]2C(=O)N[C@H](C#N)CC(=O)O (stereo partly drawn) [Compound 1, (8)-6-(((S)-1-((8)-1-(((S)-2-carboxy-1-cyanoethyl)carbamoyl)-6-methyl-3,4-dihydroisoquinolin-2(1H)-yl)-3-methyl-1-oxobutan-2-yl)amino)-5-((S)-indoline-2-carboxamido)-6-oxohexanoic acid]	do not differ significantly	not significantly shifted	significantly larger
CC(=O)N[C@H](C(=O)N[C@@H](CC(=O)O)C(=O)N[C@H](C(=O)N1CCc2cc(C)ccc2[C@H]1C(=O)N[C@H](C=O)CC(=O)O)C(C)C)C(C)C [Compound 30b, (S)-3-((S)-2-acetamido-3-methylbutanamido)-4-(((S)-1-((S)-1-(((S)-1-carboxy-3-oxopropan-2-yl)carbamoyl)-6-methyl-3,4-dihydroisoquinolin-2(1H)-yl)-3-methyl-1-oxobutan-2-yl)amino)-4-oxobutanoic acid, reference compound]	–	shifted to the left but less markedly	–
